Measured values from patent US20150104806A1, “Parkinson's Disease Biomarker” (University of Dundee, priority 2012, published 2015).

How the values were obtained:
human PINK1 [1] = experiment: Immunoprecipitation kinase assay of mitochondrial PINK1-FLAG from CCCP-treated HEK293 cells with GST-parkin Ubl (1-108) substrate; format: cell-based
Protocol: (§1) In assays utilising E. coli expressed wild-type or kinase dead (D359A) MBP-TcPINK1, reactions were set up in a volume of 40 μl, with substrates at 1 μg and kinase at 0.5 μg in 50mMTris-HCl (pH 7.5), 0.1 mM EGTA, 10 mM MgCl2, 2 mM dithiothreitol (DTT) and 0.1 mM [γ-^32P] ATP (approximately 500 cpm/pmol). Assays were incubated at 30° C. with shaking at 1200 rpm and terminated after the indicated time by addition of SDS sample buffer. In mammalian HEK293 immunoprecipitation kinase assays, C-terminal-FLAG tagged wild-type or kinase dead (D384A) PINK1 was immunoprecipitated from 5 mg of mitochondrial enriched extracts using anti-FLAG agarose beads and activity measured in a reaction volume of 40 μl consisting of 50 mM Tris-HCl (pH 7.5), 0.1 mM EGTA, 10 mM MgCl2, 2 mM DTT, 0.1 mM [γ-^32P] ATP (2000cpm/pmol) and 5 μg of indicated substrate. Assays were incubated at 30° C. with shaking at 1200 rpm and terminated after 30 min by addition of SDS sample buffer. For all assays, reaction mixtures were resolved by SDS-PAGE. Proteins were detected by Coomassie staining and gels were imaged using an Epson scanner and dried completely using a gel dryer (Bio-Rad). Incorporation of [γ-32P] ATP into substrates was analysed by autoradiography using Amersham Hyper-Film ECL.

human PINK1 [2] = experiment: Parkin Ser65 phosphorylation in Flp-In T-Rex HEK293 cells expressing PINK1-FLAG after CCCP stimulation; format: cell-based
Protocol: (§2) Flp-In T-Rex stable cell lines were cultured using DMEM (Dulbecco's modified Eagle's medium) supplemented with 10% FBS (Fetal Bovine Serum), 2 mM L-Glutamine, 1× Pen/Strep, 15 μg/ml of Blasticidin and 100 μg/ml of Hygromycin. Cell transfections of HA-parkin or untagged parkin were performed using the polyethyleneimine (PEI) method (Reed et al, 2006). Cultures were induced to express protein by addition of 0.1 μg/ml of Doxycycline in the medium for 24 hours. To uncouple mitochondria, cells were treated with 10 μM CCCP (Sigma) dissolved in DMSO for the indicated times. An equivalent volume of DMSO was used as a control.
Cells were lysed and fractionated by the indicated buffer and methods: Whole cell lysis using buffer: 50 mM Tris/HCl (pH 7.4), 1 mM EGTA, 1 mM EDTA, 1%(w/v) 1 mM sodium orthovanadate, 10 mM sodium β-glycerophosphate, 50 mM NaF, 5 mM sodium pyrophosphate, 0.27M sucrose, 1 mM benzamidine and 2mMPMSF and 1%(v/v) Triton X-100. Lysates were clarified by centrifugation at 13,000 rpm for 10 min at 4° C. and the supernatant was collected. […] Protein concentration was determined using the Bradford method (Thermo Scientific) with BSA as the standard. […]

human PINK1 [3] = experiment: PINK1 stabilisation, band-shift and Thr257 autophosphorylation in mitochondrial/cytoplasmic extracts of CCCP-treated Flp-In T-Rex HEK293 cells; format: cell-based
Protocol: as §2
Cells were lysed and fractionated by the indicated buffer and methods: Whole cell lysis using buffer: 50 mM Tris/HCl (pH 7.4), 1 mM EGTA, 1 mM EDTA, 1%(w/v) 1 mM sodium orthovanadate, 10 mM sodium β-glycerophosphate, 50 mM NaF, 5 mM sodium pyrophosphate, 0.27M sucrose, 1 mM benzamidine and 2mMPMSF and 1%(v/v) Triton X-100. Lysates were clarified by centrifugation at 13,000 rpm for 10 min at 4° C. and the supernatant was collected. Mitochondrial fractionation: cells were lysed in buffer containing 250 mM sucrose, 20 mM HEPES, 3 mM EDTA, 1%(w/v) 1 mM sodium orthovanadate, 10 mM sodium β-glycerophosphate, 50 mM NaF, 5 mM sodium pyrophosphate, pH 7.5 and protease inhibitor cocktail (Roche) at 4° C. Cells were disrupted using a glass hand held homogeniser (20 passes) and the lysate was clarified by centrifuging for 10 min at 800 g at 4° C. The supernatant was further centrifuged at 16,600 g for 10 min. The resultant supernatant served as the cytosolic fraction. The pellet containing the mitochondrial fraction was resuspended in buffer containing 1% Triton X-100 and centrifuged at 13,000 rpm for 10 min. This supernatant contained solubilized mitochondrial proteins. All lysates were snap-frozen at −80° C. until use. Protein concentration was determined using the Bradford method (Thermo Scientific) with BSA as the standard.
Immunoprecipitation of recombinant PINK1-FLAG was undertaken by standard methods with anti-FLAG agarose beads (Sigma); of HA-parkin with anti-HA agarose beads (Sigma); and of untagged parkin with anti-parkin antibody (S966C) covalently conjugated to protein G-Sepharose. Immunoprecipitates, as well as cell lysates in SDS sample buffer were subjected to SDS-PAGE and transferred to PVDF membranes. For immunoblotting, membranes were incubated for 60 mins with 1% TBST containing either 5% (wt/vol) skimmed milk powder (for total antibodies) or 5% (wt/vol) BSA (for phospho-specific antibodies). The antibodies were then incubated in the same buffer overnight at 4° C. with the indicated primary antibodies. Sheep total and phospho-specific antibodies were used at a concentration of 1 μg/ml, whereas commercial antibodies were diluted 1000-fold. The incubation with phospho-specific sheep antibodies was performed with the addition of 10 μg/ml of the dephosphopeptide antigen used to raise the antibody. Blots were washed with 0.1% TBST and incubated with secondary HRP-conjugated antibodies in 5% skimmed milk for 60 mins. After repeated washes, the signal was detected with the enhanced chemiluminescence and the X-ray films were processed in a Konica Minolta Medical SRX-101 film processor.
10 mg of mitochondrial extract from Flp-In T-Rex HEK 293 cell lines stably PINK1-FLAG were subjected to immunoprecipitation with anti-FLAG-agarose and then eluted in LDS sample buffer. […]

PINK1 = target: T1, PINK1 (Homo sapiens, UniProt Q9BXM7); experiment: Lambda phosphatase assay of immunoprecipitated PINK1 followed by in vitro kinase assay; format: biochemical; settings: 50 mM EDTA with 1000U lambda phosphatase
T1 construct: expressed in transfected cells; host or cells: Flp-In T-Rex HEK293; anti-FLAG immunoprecipitate of mitochondrial enriched extract
T1 sequence (Q9BXM7 whole entry): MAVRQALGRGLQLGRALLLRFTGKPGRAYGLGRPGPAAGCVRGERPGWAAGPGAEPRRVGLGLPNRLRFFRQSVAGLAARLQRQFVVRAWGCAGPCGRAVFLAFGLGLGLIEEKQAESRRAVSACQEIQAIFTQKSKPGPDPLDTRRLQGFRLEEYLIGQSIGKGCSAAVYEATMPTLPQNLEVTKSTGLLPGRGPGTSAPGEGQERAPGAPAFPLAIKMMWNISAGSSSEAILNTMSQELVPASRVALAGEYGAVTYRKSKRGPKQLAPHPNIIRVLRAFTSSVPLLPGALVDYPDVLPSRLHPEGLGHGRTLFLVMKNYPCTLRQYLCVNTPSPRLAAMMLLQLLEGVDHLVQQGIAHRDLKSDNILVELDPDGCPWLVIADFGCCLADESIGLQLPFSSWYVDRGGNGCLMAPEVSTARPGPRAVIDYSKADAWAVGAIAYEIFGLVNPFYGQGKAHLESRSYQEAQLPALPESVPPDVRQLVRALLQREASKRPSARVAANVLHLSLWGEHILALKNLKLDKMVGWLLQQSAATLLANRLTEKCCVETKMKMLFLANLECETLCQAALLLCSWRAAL
Protocol: Wild-type PINK1 was incubated with or without 1000U of Lambda phosphatase (NEB) in a reaction volume of 40 μl consisting of 50 mM Tris pH 7.5, 1 mM MnCl2 and 2 mM DTT. In addition wild-type PINK1 was treated with 1000U of lambda phosphatase in the presence of 50 mM EDTA. Assays were incubated at 30° C. for 30 min with shaking at 1200 rpm. The beads were washed three times in 50 mM Tris pH7.5, 0.1 mM EGTA and then utilized in an in vitro kinase assay with GST-parkin UBL (1-108) as the substrate. Samples were further analyzed as described above.

TcPINK1 = target: T2, TcPINK1 (Tribolium castaneum, UniProt D6WMX4); experiment: In vitro phosphorylation of substrates by TcPINK1; format: biochemical, insect; settings: time course, GST-parkin, [γ-32P] ATP
T2 construct: full-length MBP-fusion of wild type TcPINK1 (1-570); made in house; host or cells: E. coli BL21 Codon+
T2 sequence (D6WMX4 1-570): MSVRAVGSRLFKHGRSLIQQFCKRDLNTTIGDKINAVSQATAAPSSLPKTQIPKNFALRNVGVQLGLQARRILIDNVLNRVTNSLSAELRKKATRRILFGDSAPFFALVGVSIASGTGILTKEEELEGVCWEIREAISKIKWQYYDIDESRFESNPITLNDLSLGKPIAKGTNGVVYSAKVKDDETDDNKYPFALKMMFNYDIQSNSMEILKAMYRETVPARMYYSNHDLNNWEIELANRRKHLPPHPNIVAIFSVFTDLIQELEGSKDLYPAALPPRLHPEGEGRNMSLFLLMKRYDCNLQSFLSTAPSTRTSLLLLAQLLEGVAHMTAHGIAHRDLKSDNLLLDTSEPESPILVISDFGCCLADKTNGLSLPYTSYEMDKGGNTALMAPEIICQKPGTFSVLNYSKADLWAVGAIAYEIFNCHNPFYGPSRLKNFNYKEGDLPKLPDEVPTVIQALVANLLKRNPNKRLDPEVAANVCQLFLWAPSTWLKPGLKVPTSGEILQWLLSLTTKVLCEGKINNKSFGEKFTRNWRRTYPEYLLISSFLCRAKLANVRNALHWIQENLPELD
Protocol: as §1

## N#CC(C#N)=NNc1cccc(Cl)c1 [CCCP, carbonyl cyanide m-chlorophenyl hydrazone]
Human PINK1 [1]; CCCP time course
  time of PINK1 activation (immunoprecipitated mitochondrial PINK1 phosphorylating parkin in vitro): around 40 mins
  time of maximal PINK1 activation (immunoprecipitated mitochondrial PINK1 phosphorylating parkin in vitro): 3 h
Human PINK1 [1]; PINK1 isolated from CCCP-treated vs non-treated cells
  activation of human PINK1 (ability to phosphorylate parkin Ubl domain at Ser65 in vitro): inducing the activation
Human PINK1 [2]; 10 μM CCCP time course, phospho-Ser65 antibody
  time at which parkin Ser65 phosphorylation occurs: 5 min
Human PINK1 [2]; 10 μM CCCP, 3 hours, HEK293 cells expressing human wild-type PINK1, phospho-specific antibody
  parkin phosphorylation at Ser65: induced
Human PINK1 [3]; 3 hour CCCP treatment
  levels of full-length PINK1 associated with the mitochondria: marked increase
Human PINK1 [3]; CCCP 3 hours, wild type but not kinase-inactive PINK1, phosphospecific Thr257 antibody
  phosphorylation of PINK1 at Thr257: markedly stimulated
Human PINK1 [3]; CCCP time course, cytoplasmic extracts
  time to loss of the cleaved form of PINK1 in the cytosol: ≤ 5 min
Human PINK1 [3]; CCCP time course, mitochondrial extracts
  time to significant stabilisation of full-length PINK1 at the mitochondria: ≤ 5 min
Human PINK1 [3]; CCCP time course, mitochondrial extracts, sustained for up to 3 hours
  time to maximal stabilisation of full-length PINK1 at the mitochondria: ≤ 40 min

## O=C(O)CN(CCN(CC(=O)O)CC(=O)O)CC(=O)O [EDTA]
PINK1
  effect on lambda phosphatase-induced dephosphorylation of Thr257 and loss of ability of PINK1 to phosphorylate parkin: prevented

B1: parkin: human parkin protein expressed in E. coli, substrate of TcPINK1 (protein, UniProt O60260 1-465, looked up)
E3 ubiquitin-protein ligase …: MIVFVRFNSSHGFPVEVDSDTSIFQLKEVVAKRQGVPADQLRVIFAGKELRNDWTVQNCDLDQQSIVHIVQRPWRKGQEMNATGGDDPRNAAGGCEREPQSLTRVDLSSSVLPGDSVGLAVILHTDSRKDSPPAGSPAGRSIYNSFYVYCKGPCQRVQPGKLRVQCSTCRQATLTLTQGPSCWDDVLIPNRMSGECQSPHCPGTSAEFFFKCGAHPTSDKETSVALHLIATNSRNITCITCTDVRSPVLVFQCNSRHVICLDCFHLYCVTRLNDRQFVHDPQLGYSLPCVAGCPNSLIKELHHFRILGEEQYNRYQQYGAEECVLQMGGVLCPRPGCGAGLLPEPDQRKVTCEGGNGLGCGFAFCRECKEAYHEGECSAVFEASGTTTQAYRVDERAAEQARWEAASKETIKKTTKPCPRCHVPVEKNGGCMHMKCPQPQCRLEWCWNCGCEWNRVCMGDHWFDV
modifications: GST tag
notes: human parkin protein expressed in E. coli, substrate of TcPINK1
TcPINK1
  maximal stoichiometry of phosphorylation by TcPINK1: −0.25 moles of 32P-phosphate per mol
